# Measured values: article PMC2248166, “Quantitative peptide binding motifs for 19 human and mouse MHC class I molecules derived using positional scanning combinatorial peptide libraries” (Immunome Research, 2008)
# Columns and labels:
# HLA A*3001 = HLA A*3001 (Homo sapiens, UniProt P04439, D140H/D185E/E176W/F33S/G80R/H175R/K168Q/R138E/R41S); assay: biochemical; assay type: binding
# HLA A*3201 = HLA A*3201 (Homo sapiens, UniProt P04439, A270S/D101S/D185E/E176V/E277Q/F133L/G103R/G107R/G231S/H175R/I121M/I218V/I322F/K168Q/L105A/L300P/L318F/M331R/P208A/P217A/Q94H/R106L/R138Q/S129P/T104I/T323A/T345S/V100E/V321M/V358M); assay: biochemical; assay type: binding
# HLA A*6802 = HLA A*6802 (Homo sapiens, UniProt P04439, A269V/D140Y/D185E/E176V/E277Q/E87N/F33Y/G231S/I121R/I166T/I218V/L180W/L300P/L318F/N151K/P208A/P217A/Q86R/R138H/R169H/S129P/T345S/V36M); assay type: binding
# HLA B*0702 = HLA B*0702 (Homo sapiens, UniProt P01889); assay type: binding; conditions: positional scanning combinatorial 9-mer library; normalized to 1.0 for the best residue at each position
# HLA B*0801 = HLA B*0801 (Homo sapiens, UniProt P01889, A93T/A95T/D138N/E176V/E187T/K202T/Q94N/R180D/S35A/V36M/Y33D/Y91F); assay: biochemical; assay type: binding
# HLA B*1501 = HLA B*1501 (Homo sapiens, UniProt P01889, A329T/A93T/A95T/C349S/D201E/D98Y/E187L/E204Q/E69M/E70A/K202T/N87E/Q94N/R155S/R180W/S121R/S35A/S48A/V306I/V36M/Y140S/Y91S); assay: biochemical; assay type: binding
# HLA B*1503 = HLA B*1503 (Homo sapiens, UniProt P01889, A329T/A93T/A95T/C349S/D201E/D98Y/E187L/E204Q/K202T/N87E/Q94N/R155S/R180L/S121R/S35A/V306I/V36M/Y140S/Y91S); assay: biochemical; assay type: binding
# HLA B*2705 = HLA B*2705 (Homo sapiens, UniProt P01889, D138H/D201E/E176V/E204Q/G107R/H137Y/K202T/N104T/N87E/Q56L/Q94K/R106L/R155S/R180L/S101D/S121N/S48T/Y140D/Y33H/Y91C); assay type: binding; conditions: positional scanning combinatorial 9-mer library; normalized to 1.0 for the best residue at each position
# HLA B*3501 = HLA B*3501 (Homo sapiens, UniProt P01889, A329T/A93T/A95T/C349S/D201E/D98Y/E176V/E187L/E204Q/E69T/I218V/K202T/L119I/Q94N/R155S/R180L/S121R/S35A/S48A/T118I/V127L/V306I/V36M/Y140S/Y91F); assay type: binding
# HLA B*5101 = HLA B*5101 (Homo sapiens, UniProt P01889, A329T/A93T/A95T/C349S/D138N/D201E/D98Y/E187L/E204Q/E69T/G107R/I218V/K202T/L105A/L119W/N104I/Q94N/R106L/R155S/R180L/S101N/S121T/S35A/S48A/V306I/V36M/Y195H/Y91F); assay type: binding
# HLA B*5301 = HLA B*5301 (Homo sapiens, UniProt P01889, A329T/A93T/A95T/C349S/D201E/D98Y/E176V/E187L/E204Q/E69T/G107R/I218V/K202T/L105A/L119I/N104I/Q94N/R106L/R155S/R180L/S101N/S121R/S35A/S48A/T118I/V127L/V306I/V36M/Y140S/Y91F); assay type: binding
# HLA B*5401 = HLA B*5401 (Homo sapiens, UniProt P01889, A329T/C349S/D138N/D201E/E176V/E187T/E204Q/E69G/I76V/K202T/L119W/R155S/R180L/S121T/S35A/S48A/V127L/V306I/V36M/Y140L); assay type: binding
# HLA B*5801 = HLA B*5801 (Homo sapiens, UniProt P01889, A329T/C349S/D201E/D98Y/E176V/E187L/E204Q/E69T/G107R/I218V/I90N/K202T/L105A/L119I/N104I/N87E/Q89R/Q94S/R106L/R155S/R180L/R86G/S101N/S121R/S35A/S48A/T118I/V127L/V306I/V36M/Y140S/Y91M); assay type: binding
# HLA B*5802 = HLA B*5802 (Homo sapiens, UniProt P01889, A329T/C349S/D201E/D98Y/E176V/E187L/E204Q/E69T/G107R/I218V/I90N/K202T/L105A/N104I/N87E/Q89R/Q94S/R106L/R155S/R180L/R86G/S101N/S121W/S35A/S48A/V127L/V306I/V36M/Y140S/Y91M); assay type: binding
# H-2 D^b = H-2 D^b (Mus musculus, UniProt P01899); assay type: binding
# H-2 D^d = H-2 D^d (Mus musculus, UniProt P01900); assay type: binding
# H-2 K^k = H-2 K^k (Mus musculus, UniProt P04223); assay type: binding
# HLA A*0201 = HLA A*0201 (Homo sapiens, UniProt P04439, D140Y/D185E/D98H/E176V/E277Q/G131W/G231S/I119V/I121R/I166T/I218V/L300P/L318F/N151K/N90K/P208A/P217A/Q86G/Q94H/R138H/R169H/T345S); conditions: positional scanning combinatorial 9-mer library; normalized to 1.0 for the best residue at each position
# H-2 K^k, sequence (P01887 21-119): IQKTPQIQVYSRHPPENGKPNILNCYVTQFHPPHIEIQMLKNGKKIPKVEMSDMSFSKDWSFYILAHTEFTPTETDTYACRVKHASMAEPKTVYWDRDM
# H-2 K^k, sequence (P04223 22-369): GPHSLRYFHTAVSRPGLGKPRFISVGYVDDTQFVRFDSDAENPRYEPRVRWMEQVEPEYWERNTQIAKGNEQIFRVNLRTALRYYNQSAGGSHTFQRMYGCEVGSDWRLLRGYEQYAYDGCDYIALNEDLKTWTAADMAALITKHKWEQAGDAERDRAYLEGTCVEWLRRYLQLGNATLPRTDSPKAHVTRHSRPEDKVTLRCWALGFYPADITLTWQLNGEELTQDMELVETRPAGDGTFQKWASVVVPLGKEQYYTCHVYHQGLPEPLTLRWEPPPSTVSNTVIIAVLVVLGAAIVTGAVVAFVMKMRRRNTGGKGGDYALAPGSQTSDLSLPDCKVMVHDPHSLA
# H-2 D^b, sequence (P01887 21-119): as the sequence (P01887 21-119) above
# H-2 D^b, sequence (P01899 25-362): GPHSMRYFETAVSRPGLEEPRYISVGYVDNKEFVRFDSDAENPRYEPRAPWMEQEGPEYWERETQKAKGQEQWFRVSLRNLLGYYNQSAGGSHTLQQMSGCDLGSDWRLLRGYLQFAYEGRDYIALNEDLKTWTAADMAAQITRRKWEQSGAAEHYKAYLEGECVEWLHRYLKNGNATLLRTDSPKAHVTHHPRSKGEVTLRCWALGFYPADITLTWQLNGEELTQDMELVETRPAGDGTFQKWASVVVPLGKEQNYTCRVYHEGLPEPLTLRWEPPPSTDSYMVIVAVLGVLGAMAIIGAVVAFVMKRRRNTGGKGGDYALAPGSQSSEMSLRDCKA
# H-2 D^d, sequence (P01900 whole entry, looked up): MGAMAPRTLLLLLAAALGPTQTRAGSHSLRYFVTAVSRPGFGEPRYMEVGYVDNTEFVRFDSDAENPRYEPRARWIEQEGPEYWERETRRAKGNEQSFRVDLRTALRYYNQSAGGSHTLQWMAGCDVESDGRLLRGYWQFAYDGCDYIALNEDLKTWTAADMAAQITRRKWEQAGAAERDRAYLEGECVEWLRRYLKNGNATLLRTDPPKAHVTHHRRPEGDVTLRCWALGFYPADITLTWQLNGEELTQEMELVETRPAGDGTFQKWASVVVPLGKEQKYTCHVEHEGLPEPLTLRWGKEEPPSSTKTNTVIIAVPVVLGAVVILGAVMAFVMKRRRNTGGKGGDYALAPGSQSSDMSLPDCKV
Sequence,"Normalized average relative binding affinity (ARB), HLA A*3001 (HLA A*3001)","Normalized average relative binding affinity (ARB), HLA A*3201 (HLA A*3201)","Normalized average relative binding affinity (ARB), HLA A*6802 (HLA A*6802)","Normalized average relative binding affinity (ARB), HLA B*0702 (HLA B*0702)","Normalized average relative binding affinity (ARB), HLA B*0801 (HLA B*0801)","Normalized average relative binding affinity (ARB), HLA B*1501 (HLA B*1501)","Normalized average relative binding affinity (ARB), HLA B*1503 (HLA B*1503)","Normalized average relative binding affinity (ARB), HLA B*2705 (HLA B*2705)","Normalized average relative binding affinity (ARB), HLA B*3501 (HLA B*3501)","Normalized average relative binding affinity (ARB), HLA B*5101 (HLA B*5101)","Normalized average relative binding affinity (ARB), HLA B*5301 (HLA B*5301)","Normalized average relative binding affinity (ARB), HLA B*5401 (HLA B*5401)","Normalized average relative binding affinity (ARB), HLA B*5801 (HLA B*5801)","Normalized average relative binding affinity (ARB), HLA B*5802 (HLA B*5802)","Normalized average relative binding affinity (ARB), H-2 Db (H-2 D^b)","Normalized average relative binding affinity (ARB), H-2 Dd (H-2 D^d)","Normalized average relative binding affinity (ARB), H-2 Kk (H-2 K^k)","Normalized average relative binding affinity (ARB), HLA A*0201 (HLA A*0201)"
XXTXXXXXX [3064.0057],0.0040,0.16,0.14,0.035,0.054,0.12,0.23,0.26,0.14,0.14,0.045,0.012,0.39,0.16,0.057,0.0048,0.11,0.14
XXKXXXXXX [3064.0049],0.20,0.092,0.11,0.20,0.96,0.53,0.095,0.21,0.096,0.20,0.019,0.015,0.020,0.081,0.028,0.0033,0.39,0.016
XHXXXXXXX [3064.0027],0.082,0.047,0.0031,0.0028,0.028,0.015,0.16,0.0065,0.0078,0.029,0.0036,0.0014,0.061,0.030,0.099,0.061,0.0052,0.0016
